The source made the active and inactive calls. No cut-off for these calls is given here.
Legend:
[1] = target: Stimulator of interferon genes protein (Homo sapiens) (UniProt Q86WV6); experiment: Agonist activity at STING in human THP-1 cells assessed as increase in LC3 protein level at 20 uM measured for 4 hrs by Western blotting analysis; type: cell-based; details: filed as agonist
[2] = target: Stimulator of interferon genes protein (Homo sapiens) (UniProt Q86WV6); experiment: Agonist activity at STING in human THP-1 cells assessed as increase in IL6 mRNA level at 20 uM measured for 4 hrs by qPCR analysis; type: cell-based; details: filed as agonist
THP-1 = experiment: Upregulation of ISG15 mRNA level in STING-knockout human THP-1 cells at 20 uM measured for 4 hrs by qPCR analysis; type: functional, cell-based
THP1-Dual KO-STING = experiment: Upregulation of interferon production in human THP1-Dual KO-STING cells by dual-luciferase reporter assay; type: functional, cell-based
[3] = target: T1, Stimulator of interferon genes protein (Mus musculus) (UniProt Q3TBT3); experiment: Agonist activity at STING in MEF cells assessed as nuclear transposition of phosphorylated IRF3 incubated for 1 hr by laser scanning confocal microscope analysis; type: cell-based; details: filed as agonist
T1 sequence (whole entry): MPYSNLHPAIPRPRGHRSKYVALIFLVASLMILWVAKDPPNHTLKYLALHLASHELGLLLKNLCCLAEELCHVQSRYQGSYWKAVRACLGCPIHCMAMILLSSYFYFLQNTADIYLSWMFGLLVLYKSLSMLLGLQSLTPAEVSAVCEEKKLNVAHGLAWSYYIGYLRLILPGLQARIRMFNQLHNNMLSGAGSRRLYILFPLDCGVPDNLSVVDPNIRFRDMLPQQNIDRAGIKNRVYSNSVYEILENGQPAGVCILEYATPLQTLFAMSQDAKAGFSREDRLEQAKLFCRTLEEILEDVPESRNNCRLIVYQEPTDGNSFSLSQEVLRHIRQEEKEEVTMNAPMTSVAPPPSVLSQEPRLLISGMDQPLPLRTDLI

Human alphaherpesvirus 1 = experiment: Antiviral activity against HSV-1-GFP infected in human THP-1 cells assessed as reduction in viral infection pre-infected with virus for 24 hrs followed by compound addition and measured after 6 hrs by flow cytometry analysis; type: functional, organism-based; details: dose 10-30 µM
MC-38 [4] = experiment: Antitumor activity against mouse MC38 cells allografted in C57/BL6 mouse assessed as tumor growth inhibition at 300 ug, IT administered every 2 days relative to control; type: functional; details: dose 300 µg
MC-38 [5] = experiment: Antitumor activity against mouse MC38 cells allografted in C57/BL6 mouse assessed as increase in CD3+ T cells in spleen at 300 ug, IT administered every 2 days by flow cytometry analysis; type: functional, cell-based; details: dose 300.0 µg
MC-38 [6] = experiment: Antitumor activity against mouse MC38 cells allografted in C57/BL6 mouse assessed as increase in CD8+ T cell numbers in spleen at 300 ug, IT administered every 2 days by immunohistochemical staining based analysis; type: functional; details: dose 300.0 µg
[7] = target: Stimulator of interferon genes protein (Homo sapiens) (UniProt Q86WV6); experiment: Agonist activity at STING in human THP-1 cells assessed as upregulation of IFNgamma related genes by GSEA; type: cell-based; details: filed as agonist
[8] = target: Stimulator of interferon genes protein (Homo sapiens) (UniProt Q86WV6); experiment: Agonist activity at STING in human THP-1 cells assessed as upregulation of IL-6/JAK/STAT3 signaling pathway by GSEA; type: cell-based; details: filed as agonist

Sequence of Stimulator of interferon genes protein (Homo sapiens) (Q86WV6 whole entry): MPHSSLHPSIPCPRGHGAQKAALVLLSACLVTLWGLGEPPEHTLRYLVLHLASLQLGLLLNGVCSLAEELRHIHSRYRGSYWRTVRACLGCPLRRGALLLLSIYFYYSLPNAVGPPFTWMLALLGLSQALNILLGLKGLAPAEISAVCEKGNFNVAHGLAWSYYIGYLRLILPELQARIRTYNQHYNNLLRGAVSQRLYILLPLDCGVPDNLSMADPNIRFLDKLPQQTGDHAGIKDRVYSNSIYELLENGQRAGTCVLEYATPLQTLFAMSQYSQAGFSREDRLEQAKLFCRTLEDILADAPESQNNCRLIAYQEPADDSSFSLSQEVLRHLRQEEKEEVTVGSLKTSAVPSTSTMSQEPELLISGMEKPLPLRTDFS

For `CC(NCCC(c1ccccc1)c1ccccc1)c1ccccc1` (stereo unspecified) [FENDILINE], the Activity [1] was “Active”, the Activity [2] was “Active” and the Activity (THP-1) was “inactive”. For the same compound, the Activity (THP1-Dual KO-STING) was “inactive”, the Activity [3] was “Active” and the Activity (Human alphaherpesvirus 1) was “Dose-Dependent Effect”. For the same compound, the TGI (MC-38 [4]) was 82%, the Activity (MC-38 [5]) was “Active” and the Activity (MC-38 [6]) was “Active”. For the same compound, the Activity [7] was “Active” and the Activity [8] was “Active”.

— ChEMBL document CHEMBL5518165, “M335, a novel small-molecule STING agonist activates the immune response and exerts antitumor effects” (Eur J Med Chem, 2024)
